Laboratory results taken from US5969115A, “Bisazo dyes and their preparation and use” (Ilford Imaging Switzerland GMBH, priority 1997, dated 1999).

Key:
Format in all cases: physicochemical
[1] = Absorption maximum in water
Source text: The absorption maxima and the results of the tests (B) to (D) are listed in Table 6 for the dyes of the invention and in Table 7 for the dyes that are state of the art.

[2] = Light fastness of printed samples (density loss after xenon lamp irradiation); conditions: for light fastness: printed samples, in words; for Density loss in %: xenon lamp, total illumination 20 kJoule/cm^2
Protocol: (§1) The present invention, as far as it relates to inks, is further illustrated by the following examples using dyes according to our invention described in Tables 1 and 2 and dyes representing the state of the art described in Tables 3 and 4. 100 g of each ink were prepared by heating the necessary amount of dye (3-7 g), glycerol (5 g), tetraethylenglycol (1.1 g). and a biocide solution (Promexal X50, available from Zeneca, Manchester, England) (1.2 g) together with water at a temperature of 50° C. under stirring for one hour. The resulting solution was cooled down to 20° C., pH was adjusted to 7.5 and passed through a Millipore® filter of 0.5 μm pore diameter. The dye quantity was adjusted in a way that the density of the printed images was the same for all dyes.
(§2) 30 g of gelatin with a high isoelectric point (type St 70,810, available from Deutsche Gelatinefabriken, Eberbach, Germany) were dissolved in 360 ml of deionised water. 1 g of a surfactant (Olin 10G, available from Olin Corporation, Norwalk, USA) were added to this solution. Immediately before coating 6.6 g of a solution of 2-(4-dimethyl-carbamoyl-pyridino)-ethanesulfonate (3%) were added and pH was adjusted to 6.5. 100 g/m^2 of this solution was then coated onto a resin coated paper support using a bar coater. The recording medium prepared in this way was dried for 12 hours.
(§3) The inks were then jetted onto this recording medium with an HP560 ink jet printer from Hewlett-Packard. The properties of the printed samples were evaluated later on.
The printed samples were irradiated in an Atlas Ci35A Weather-O-Meter® with a r 6500 W Xenon lamp until a total illumination of 20 kJoule/cm^2 was reached. The density loss was measured with an X-Rite® densitometer. It is expressed as % loss of initial density.

[3] = Color co-ordinates (L*a*b*) of printed samples; conditions: for neutral black (color co-ordinates): in words
Protocol: as §1, §2, §3
L*a*b*-values were measured on printed samples using a Gretag SPM 100 spectrometer, available from Gretag AG, Regensdorf, Switzerland.
Black dyes show a neutral hue if the values of a* and b*out of the L*a*b* color co-ordinates are zero.

[4] = Dye solubility in deionised water; conditions: for Solubility: deionised water, stirred 1 hour at 50° C., cooled to 20° C., Table 5
Protocol: The dye was dispersed in deionised water and this dispersion was stirred for 1 hour at 50° C. Then the mixture was cooled down to 20° C., centrifuged and filtered. Dye solubility was calculated a) from visible spectral data of the filtered solution or b) based on the dried filter residue.

SMILES	HD max in water ([1]; Table 6) [nm]	Density loss in % ([2]; Table 6) [%]	L*a*b*-value: L* ([3]; Table 6)	L*a*b*-value: a* ([3]; Table 6)	L*a*b*-value: b* ([3]; Table 6)	other results
O=C(O)CCc1ccc(N=Nc2ccc(N=Nc3c(S(=O)(=O)O)cc4ccc(NCCS(=O)(=O)O)cc4c3O)c3cc(S(=O)(=O)O)ccc23)cc1 [Compound 12]	576	4	12.1	3.8	-3.1	light fastness [2]: excellent light fastness; neutral black (color co-ordinates) [3]: neutral blacks
O=S(=O)(O)CCNc1ccc2cc(S(=O)(=O)O)c(N=Nc3ccc(N=Nc4cccc(CO)c4)c4ccc(S(=O)(=O)O)cc34)c(O)c2c1 [Compound 1]	582					HD max in water (second maximum) ([1]; second value of the cell, Table 6): 440 nm
O=S(=O)(O)CCNc1ccc2cc(S(=O)(=O)O)c(N=Nc3ccc(N=Nc4ccc(CS(=O)(=O)O)cc4)c4cc(S(=O)(=O)O)ccc34)c(O)c2c1 [Compound 9]	575	14	22.9	11.0	-5.2	
O=S(=O)(O)CCNc1ccc2cc(S(=O)(=O)O)c(N=Nc3ccc(N=Nc4ccc(S(=O)(=O)O)cc4)c4ccc(S(=O)(=O)O)cc34)c(O)c2c1 [Compound 5]	576	6	7.3	2.0	-2.4	Solubility [4]: 16 g per 100 ml; light fastness [2]: excellent light fastness; neutral black (color co-ordinates) [3]: neutral blacks
O=C(O)c1ccc(N=Nc2ccc(N=Nc3c(S(=O)(=O)O)cc4ccc(NCCS(=O)(=O)O)cc4c3O)c3cc(S(=O)(=O)O)ccc23)cc1Cl [Compound 15]	590	8	4.7	4.5	-1.7	light fastness [2]: excellent light fastness; neutral black (color co-ordinates) [3]: neutral blacks
Nc1ccc2cc(S(=O)(=O)O)cc(O)c2c1N=Nc1ccc(N=Nc2ccc(O)c(C(=O)O)c2)c2ccc(S(=O)(=O)O)cc12 [Compound 28, reference compound]						L*a*b*-value: L* ([3]; state of the art dyes, Table 7): 18.8; L*a*b*-value: a* ([3]; state of the art dyes, Table 7): 18.1; L*a*b*-value: b* ([3]; state of the art dyes, Table 7): -4.1
O=P(O)(O)Cc1ccc(N=Nc2ccc(N=Nc3c(S(=O)(=O)O)cc4ccc(NCCS(=O)(=O)O)cc4c3O)c3cc(S(=O)(=O)O)ccc23)cc1 [Compound 10]	578	13	2.0	1.5	0.1	
O=S(=O)(O)CCNc1ccc2cc(S(=O)(=O)O)c(N=Nc3ccc(N=Nc4ccc(S(=O)(=O)O)cc4)c4ccc(S(=O)(=O)O)cc34)c(O)c2c1 [Compound 3]	575	5	4.3	2.5	-2.5	Solubility [4]: > 20 g per 100 ml; solubility compared with previously known dyes 24 and 26 ([4]; in words): considerably higher solubility
O=C(O)CCNc1ccc2cc(S(=O)(=O)O)c(N=Nc3ccc(N=Nc4cccc(C(=O)O)c4)c4ccc(S(=O)(=O)O)cc34)c(O)c2c1 [Compound 26, reference compound]						HD max in water ([1]; state of the art dyes, Table 7): 568 nm; Solubility [4]: 17 g per 100 ml; Density loss in % ([2]; state of the art dyes, Table 7): 8%; L*a*b*-value: L* ([3]; state of the art dyes, Table 7): 14.7; L*a*b*-value: a* ([3]; state of the art dyes, Table 7): 14.4; L*a*b*-value: b* ([3]; state of the art dyes, Table 7): -14.6
O=S(=O)(O)CCNc1ccc2cc(S(=O)(=O)O)c(N=Nc3ccc(N=Nc4ccc(CCO)cc4)c4ccc(S(=O)(=O)O)cc34)c(O)c2c1 [Compound 11]	577	11	18.3	4.2	-3.1	
Nc1ccc2cc(S(=O)(=O)O)c(N=Nc3ccc(N=Nc4cccc(C(=O)O)c4)c4ccc(S(=O)(=O)O)cc34)c(O)c2c1 [Compound 23, reference compound]						HD max in water ([1]; state of the art dyes, Table 7): 570 nm; Density loss in % ([2]; state of the art dyes, Table 7): 2%
Nc1ccc2cc(S(=O)(=O)O)c(N=Nc3ccc(N=Nc4cc(C(=O)O)cc(C(=O)O)c4)c4cc(S(=O)(=O)O)ccc34)c(O)c2c1 [Compound 25, reference compound]						HD max in water ([1]; state of the art dyes, Table 7): 556 nm; Density loss in % ([2]; state of the art dyes, Table 7): 2%; L*a*b*-value: L* ([3]; state of the art dyes, Table 7): 10.6; L*a*b*-value: a* ([3]; state of the art dyes, Table 7): 11.7; L*a*b*-value: b* ([3]; state of the art dyes, Table 7): -0.6
O=C(O)c1cccc(N=Nc2ccc(N=Nc3c(S(=O)(=O)O)cc4ccc(NCCS(=O)(=O)O)cc4c3O)c3cc(S(=O)(=O)O)ccc23)c1 [Compound 2]	573	0	2.1	2.0	0.3	
Nc1ccc2cc(S(=O)(=O)O)c(N=Nc3ccc(N=Nc4cc(C(=O)O)cc(C(=O)O)c4)c4ccc(S(=O)(=O)O)cc34)c(O)c2c1 [Compound 24, reference compound]						HD max in water ([1]; state of the art dyes, Table 7): 571 nm; Solubility [4]: 12 g per 100 ml; L*a*b*-value: L* ([3]; state of the art dyes, Table 7): 27.0; L*a*b*-value: a* ([3]; state of the art dyes, Table 7): -0.7; L*a*b*-value: b* ([3]; state of the art dyes, Table 7): -8.8
O=S(=O)(O)CCNc1ccc2cc(S(=O)(=O)O)c(N=Nc3ccc(N=Nc4ccc(S(=O)(=O)O)cc4)c4cc(S(=O)(=O)O)ccc34)c(O)c2c1 [Compound 4]	577	7	8.9	14.4	-7.5	
O=S(=O)(O)CCNc1ccc2cc(S(=O)(=O)O)c(N=Nc3ccc(N=Nc4cc(Cl)c(S(=O)(=O)O)cc4Cl)c4ccc(S(=O)(=O)O)cc34)c(O)c2c1 [Compound 18]	553	5	3.5	4.4	0.3	light fastness [2]: excellent light fastness; neutral black (color co-ordinates) [3]: neutral blacks
O=C(O)Cc1ccc(N=Nc2ccc(N=Nc3c(S(=O)(=O)O)cc4ccc(NCCS(=O)(=O)O)cc4c3O)c3cc(S(=O)(=O)O)ccc23)cc1 [Compound 7]	576	1	15.5	5.2	-5.9	light fastness [2]: excellent light fastness; neutral black (color co-ordinates) [3]: neutral blacks
O=C(O)CCC(NC(=O)c1ccc(N=Nc2ccc(N=Nc3c(S(=O)(=O)O)cc4ccc(NCCS(=O)(=O)O)cc4c3O)c3cc(S(=O)(=O)O)ccc23)cc1)C(=O)O (centres unmarked) [Compound 14]	576	2	19.5	7.5	2.4	
O=C(O)CCc1cccc(N=Nc2ccc(N=Nc3c(S(=O)(=O)O)cc4ccc(NCCS(=O)(=O)O)cc4c3O)c3cc(S(=O)(=O)O)ccc23)c1 [Compound 13]	575	4				
O=C(O)CCNc1ccc2cc(S(=O)(=O)O)c(N=Nc3ccc(N=Nc4ccc(C(=O)O)cc4)c4ccc(S(=O)(=O)O)cc34)c(O)c2c1 [Compound 27, reference compound]						HD max in water ([1]; state of the art dyes, Table 7): 564 nm; Density loss in % ([2]; state of the art dyes, Table 7): 12%; L*a*b*-value: L* ([3]; state of the art dyes, Table 7): 23.7; L*a*b*-value: a* ([3]; state of the art dyes, Table 7): 15.1; L*a*b*-value: b* ([3]; state of the art dyes, Table 7): -16.6
O=S(=O)(O)CCNc1ccc2cc(S(=O)(=O)O)c(N=Nc3ccc(N=Nc4ccc5c(S(=O)(=O)O)cc(S(=O)(=O)O)cc5c4)c4ccc(S(=O)(=O)O)cc34)c(O)c2c1 [Compound 20]	582	3	9.4	3.8	-3.6	light fastness [2]: excellent light fastness; neutral black (color co-ordinates) [3]: neutral blacks
O=S(=O)(O)CCNc1ccc2cc(S(=O)(=O)O)c(N=Nc3ccc(N=Nc4cccc(S(=O)(=O)O)c4)c4cc(S(=O)(=O)O)ccc34)c(O)c2c1 [Compound 6]	573	8	7.5	14.6	-6.4	
O=C(O)c1cc(N=Nc2ccc(N=Nc3c(S(=O)(=O)O)cc4ccc(NCCS(=O)(=O)O)cc4c3O)c3ccc(S(=O)(=O)O)cc23)cc(C(=O)O)c1 [Compound 17]	568	2	5.7	2.6	2.3	
O=S(=O)(O)CCNc1ccc2cc(S(=O)(=O)O)c(N=Nc3ccc(N=Nc4cc(S(=O)(=O)O)c5cccc(S(=O)(=O)O)c5c4)c4ccc(S(=O)(=O)O)cc34)c(O)c2c1 [Compound 19]	581	1				
